For the test, the target named is T1, SeMet CtdP (Penicillium citrinum, UniProt Z9QVB9HE69).
T1 sequence (Z9QVB9HE69 1-348): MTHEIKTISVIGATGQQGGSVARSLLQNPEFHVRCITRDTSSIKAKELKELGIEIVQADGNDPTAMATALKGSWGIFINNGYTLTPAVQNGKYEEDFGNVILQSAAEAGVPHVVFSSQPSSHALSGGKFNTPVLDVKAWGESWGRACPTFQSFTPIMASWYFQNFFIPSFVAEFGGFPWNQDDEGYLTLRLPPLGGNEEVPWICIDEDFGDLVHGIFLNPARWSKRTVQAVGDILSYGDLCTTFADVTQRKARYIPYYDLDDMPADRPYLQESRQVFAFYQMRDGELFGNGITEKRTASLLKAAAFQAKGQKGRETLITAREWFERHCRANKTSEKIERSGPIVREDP
Put plainly: X-ray crystal structure, […] Å, SeMet SAD. It counts as binding. Particulars: bound in all four chains; product 10 in chains A, B, D.

Turning to `NC(=O)c1ccc[n+]([C@@H]2O[C@H](COP(=O)(O)OP(=O)(O)OC[C@H]3O[C@@H](n4cnc5c(N)ncnc54)[C@H](OP(=O)(O)O)[C@@H]3O)[C@@H](O)[C@H]2O)c1` [NADP^+], the “X-ray crystal structure, 2.5 Å, SeMet SAD” value was “four chains (A-D) in the asymmetric unit, all in complex with NADP^+”.

The record behind these values is PMC10073347 (Nature chemistry, 2023).
